Laboratory results from patent US20050180982A1, “Cadherin-11 expression, an assay and treatment for cellular invasiveness” (THE UNIVERSITY OF BRITISH COLUMBIA, priority 1998, published 2005).

Legend:
[1] = test system: cad-11 mRNA in PC3 prostate cancer cell line; test: Semiquantitative PCR of cad-11 mRNA in PC3 cells cultured with TGF-1; assay type: cell-based; conditions: TGF-1 10 pg-1 ng/ml for 24 hours
Source text: (§1) However, low levels of the mRNA transcripts encoding E-cadherin and cad-11 were also detected in these cell lines.
(§2) The increase in cad-11 was concomitant with a decrease in cad-6 and N-cadherin mRNA levels.

[2] = test system: cad-6 mRNA in PC3 prostate cancer cell line; test: PCR of cad-6 mRNA in PC3 cells cultured with TGF-1; assay type: cell-based; conditions: TGF-1 10 pg-1 ng/ml for 24 hours
Source text: as §1, §2

[3] = test system: N-cadherin mRNA in PC3 prostate cancer cell line; test: PCR of N-cadherin mRNA in PC3 cells cultured with TGF-1; assay type: cell-based; conditions: TGF-1 10 pg-1 ng/ml for 24 hours
Source text: as §1, §2

[4] = test system: cad-11 protein in extravillous cytotrophoblasts; test: Western blot of cad-11 protein in extravillous cytotrophoblasts cultured with TGF-1; assay type: cell-based, human
Method: (§3) First trimester placentae were obtained from elective terminations of pregnancies (8-13 weeks). Extravillous cytotrophoblasts were propagated from first trimester placental explants as described by Graham et al. Biology of Reproduction 46:561-572. The chorionic villi were washed thoroughly in Dulbecco's Modified Eagle's Medium (DMEM; Gibco BRL. Burlington. Ont.) containing 25 mM glucose, 25 mM Hepes and […] gentamicin. The villi were minced finely and plated in 25 cm^2 tissue culture flasks containing DMEM supplemented with antibiotics and 10% heat-inactivated fetal calf serum (FCS). The fragments of chorionic villi were allowed to adhere for […], after which the non-adherent material was removed. The villous explants were cultured for a further 10-14 days, with the culture medium being replaced every 3 days. The propagated extravillous cytotrophoblasts were separated from the villous explants by a trypsin digestion (0.125% trypsin in Ca^2−, Mg^2−-free PBS) and plated in 60 mm culture dishes containing DMEM supplemented with antibiotics and 10% FCS. The purity of the extravillous cytotrophoblast cultures was determined by cytokeratin immunostaining. Only cultures which were 100% positive for cytokeratin immunostaining were used.
(§4) Extravillous cytotrophoblasts grown to 70% confluence in DMEM containing 10% FCS, were washed with PBS and cultured in serum-free DMEM for a further 24 hours. This culture medium was removed and after the cells had been washed twice with PBS, replaced with serum-free DMEM containing porcine TGF-1 (1 pg-10 ng/ml); Sigma Chemical Co., St. Louis. MO) or vehicle ([…]). The cells were fixed for morphological assessment and immunocytochemistry or harvested for Northern or Western blot analysis after 24 hours of culture in the presence or absence of TGF-1.
For Western blot analysis, the trophoblasts were incubated in 100 l of cell lysis buffer (Tris-HCl, pH 7.5 containing 0.5% Nonidet P40, 0.5 mM CaCl2 and 1.0 mM PMSF) at 4° C. for 30 minutes on a rocking platform. The cell lysates were centrifuges at 10.000×g for 20 minutes and the supernatant used in the Wester blot analyses. Aliquots were then taken from the samples and subjected to SDS-polyacrylamide gel electrophoresis under reducing conditions, as described by Laemmli (1970) Nature 227:680-685. The stacking gels contained 5% acrylamide and the separating eels were composed of 7.5% acrylamide. […]
The results are presented as the mean relative absorbance (±SE) for three independent experiments. Statistical differences between treatments were assessed by the analysis of variance (ANOVA). […] Significant differences between the means were determined using the least significant test. […]

[5] = test system: extravillous cytotrophoblasts; test: Immunocytochemistry for cad-11 and morphology of extravillous cytotrophoblasts cultured with TGF-1; assay type: cell-based, human
Method: as §3, §4
The cells were washed twice in PBS and fixed in 0.1% glutaraldehyde/2% formaldehyde at 4° C. for 20 minutes Immunocytochemistry was performed using a mouse monoclonal antibody directed against human cytokeratin filaments 8 and 18 (Becton Dickson. San lose. CA) or a further monoclonal antibody directed against human cad-11 (C11-113E; ICOS Corporation. Bothell, Wash.; ATCC accession no. HB-12515) as described in (MacCalman et al. 1996 [supra] and Getsios et al. 1998 [supra]). Sequential incubations were performed according to the methods of Cartun and Pedersen (1989) J. of Histotechnology 12:273-280 and included 10% normal horse serum for 30 minutes, primary antiserum at 37° C. for 1 hours, secondary biotinylated antibody at 37° C. for 45 minutes, streptavidin-biotinylated horseradish peroxidase complex reagent at 37° C. for 30 minutes, and three five minutes washes in PBS. […]

[6] = test system: cad-11 mRNA in extravillous cytotrophoblasts; test: Northern blot of cad-11 mRNA in extravillous cytotrophoblasts cultured with TGF-1; assay type: cell-based, human
Method: as §3
Extravillous cytotrophoblasts grown to 70% confluence in DMEM containing 10% FCS, were washed with PBS and cultured in serum-free DMEM for a further 24 hours. […]
The Northern blots were probed with a human cad-11 cDNA probe according to the methods of MacCalman et al. (1992) [supra]. […] The absorbance values obtained for the cad-11 mRNA transcript were normalized relative to the 18 rRNA absorbance value.
The results are presented as the mean relative absorbance (±SE) for three independent experiments. Statistical differences between treatments were assessed by the analysis of variance (ANOVA). […] Significant differences between the means were determined using the least significant test.

[7] = 1 or 10 ng/ml of TGF-1, 24 hours, only these concentrations
[8] = TGF-1 1 pg-10 ng/ml, 24 hours, dose-dependent manner

Substance: TGF-1: porcine TGF-1 (transforming growth factor), Sigma Chemical Co.
- Cad-11 mRNA levels [1]: readily detectable
- cad-6 mRNA levels [2]: decrease
- N-cadherin mRNA levels [3]: decrease
- cad-11 protein expression levels at 1 or 10 ng/ml [4, 7]: significant increase
- TGF-1 concentration giving maximum cad-11 expression levels ([4]; 24 hours): 10 ng/mL
- cad-11 protein expression levels, dose dependence [4, 8]: increase
- cad-11 levels by Western blot, dose dependence ([4]; porcine TGF-1 10 pg-10 ng/ml): increased
- cellular structures observed ([5]; 0.1 ng/ml of TGF-1 for 12 hours): Large cellular aggregates
- large cellular aggregates and multinucleated cells ([5]; 10 ng/ml TGF-1, 24 hours): predominant
- number of cells expressing cad-11 ([5]; 1 or 10 ng/ml of TGF-1, 24 hours, immunostaining): marked increase
- cad-11 immunostaining of cell aggregates ([5]; high concentrations of TGF-1): Intense immunostaining
- cad-11 mRNA levels at 1 or 10 ng/ml [6, 7]: significant increase
- TGF-1 concentration giving maximum cad-11 mRNA levels ([6]; 24 hours): 10 ng/mL
- cad-11 mRNA levels, dose dependence [6, 8]: increased
